Results reported in patent US7183324B2, “2,3,4-substituted cyclopentanones as therapeutic agents” (Allergan, Inc., priority 2004, dated 2007).

Key:
Beagle dogs [1] = assay: Ocular surface hyperemia in dogs; assay type: in vivo; details: dog, topical, score: trace 0.5, mild 1, moderate 2, severe 3
Experimental: (§1) • Intraocular Pressure (IOP) Intraocular pressure studies in dogs involved pneumatonometry performed in conscious, Beagle dogs of both sexes (10–15 kg). The animals remained conscious throughout the study and were gently restrained by hand. Drugs were administered topically to one eye as a 25 μL volume drop, the other eye received 25 μL vehicle (0.1% polysorbate 80:10 mM TRIS) as a control. Proparacaine (0.1%) was used for corneal anesthesia during tonometry. Intraocular pressure was determined just before drug administration and at 2, 4 and 6 hr thereafter on each day of the 5 day study. Drug was administered immediately after the first IOP reading. • An analogous procedure was carried out with cynomolgus monkeys with measurements at 2, 4, 6, and 24 hours after a single dose. • Pupil Diameter • Dog pupil diameter was measured using an optistick (a mm ruler which included half-circle references of standard widths (mm) for reference. Gently restraining the dog by hand, pupil diameter was determined by matching a half-circle to the pupil in normal room light. In dogs with very dark pupils a specialized penlight was used, but only very briefly to avoid pupil constriction. Pupil diameter was measured at the same time as IOP and hyperemia. • Ocular Surface Hyperemia • Ocular surface hyperemia was visually assessed and scored according to a system typically used clinically.
• Ocular surface hyperemia was evaluated at the same time points as intraocular pressure measurement. It should be noted that untreated dog eyes frequently have a pink/red tone. Thus, values of trace or even mild are not necessarily out of the normal range.

Beagle dogs [2] = assay: Intraocular pressure in dogs (pneumatonometry); assay type: in vivo; details: dog, topical 25 μL drop, 5 day study
Experimental: as §1

HEP4 = target: T1, HEP4 (Homo sapiens, UniProt P35408); assay: Radioligand binding, EP4 receptor; details: [3H]PGE2 5 nM, HEK-293 membranes
T1 construct: expressed in transfected cells; host or cells: HEK-293
Experimental: (§2) HEK-293 cells stably expressing the human or feline FP receptor, or EP1, EP2, or EP4 receptors were washed with TME buffer, scraped from the bottom of the flasks, and homogenized for 30 sec using a Brinkman PT 10/35 polytron. TME buffer was added to achieve a final 40 ml volume in the centrifuge tubes (the composition of TME is 100 mM TRIS base, 20 mM MgCl2, […]; 10N HCl is added to achieve a pH of 7.4).
(§3) The cell homogenate was centrifuged at 19000 r.p.m. for 20 min at 4° C. using a Beckman Ti-60 rotor. The resultant pellet was resuspended in TME buffer to give a final 1 mg/ml protein concentration, as determined by Biorad assay. Radioligand binding competition assays vs. [^3H-]17-phenyl PGF2α (5 nM) were performed in a 100 μl volume for 60 min. Binding reactions were started by adding plasma membrane fraction. The reaction was terminated by the addition of 4 ml ice-cold TRIS-HCl buffer and rapid filtration through glass fiber GF/B filters using a Brandel cell harvester. The filters were washed 3 times with ice-cold buffer and oven dried for one hour. Non-specific binding was determined with 10 uM unlabeled 17-phenyl PGF2α.
(§4) [^3H-] PGE2 (5 nM; specific activity 180 Ci mmol) was used as the radioligand for EP receptors. Binding studies employing EP1, EP2, EP3, EP4 were performed in duplicate in at least three separate experiments. A 200 μl assay volume was used. Incubations were for 60 min at 25° C. and were terminated by the addition of 4 ml of ice-cold 50 mM TRIS-HCl, followed by rapid filtration through Whatman GF/B filters and three additional 4 ml washes in a cell harvester (Brandel). Non-specific binding determined with 10^−5M of unlabeled PGE2.

HEP2 = target: T2, HEP2 (Homo sapiens, UniProt P43116); assay: Radioligand binding, EP2 receptor; details: [3H]PGE2 5 nM, HEK-293 membranes
T2 construct: expressed in transfected cells; host or cells: HEK-293
Experimental: as §2, §3, §4

hEP3A/Gqi5 = target: T3, hEP3A/Gqi5 (Homo sapiens, UniProt P43115); assay: FLIPR calcium signal, hEP3A/Gqi5; assay type: cell-based; details: HEK-293 (EBNA) cells, read-out: FUNCTIONAL EC50 HEP3A
T3 construct: expressed in transfected cells; host or cells: HEK-293 (EBNA)
T3 sequence (P43115 1-390): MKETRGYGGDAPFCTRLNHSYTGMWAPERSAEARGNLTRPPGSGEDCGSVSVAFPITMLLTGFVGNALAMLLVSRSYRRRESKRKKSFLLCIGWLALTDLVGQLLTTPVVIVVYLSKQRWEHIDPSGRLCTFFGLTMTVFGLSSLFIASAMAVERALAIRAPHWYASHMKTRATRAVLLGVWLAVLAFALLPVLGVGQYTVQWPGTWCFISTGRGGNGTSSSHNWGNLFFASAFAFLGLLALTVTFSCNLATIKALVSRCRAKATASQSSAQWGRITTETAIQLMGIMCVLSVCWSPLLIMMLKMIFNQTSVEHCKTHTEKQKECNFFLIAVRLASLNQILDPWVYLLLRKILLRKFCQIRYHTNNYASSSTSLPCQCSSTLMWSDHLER
Experimental: (§5) HEK-293 (EBNA) cells, stably expressing one type or subtype of recombinant human prostaglandin receptors (prostaglandin receptors expressed: hDP/Gqs5; hEP1; hEP2/Gqs5; hEP3A/Gqi5; hEP4/Gqs5; hFP; hIP; hTP), were cultured in 100 mm culture dishes in high-glucose DMEM medium containing 10% fetal bovine serum, 2 mM 1-glutamine, 250 μg/ml geneticin (G418) and 200 μg/ml hygromycin B as selection markers, and 100 units/ml penicillin G, 100 μg/ml streptomycin and 0.25 μg/ml amphotericin B. • (b) Calcium Signal Studies on the FLIPR™
(§6) Cells were seeded at a density of 5×10^4 cells per well in Biocoat® Poly-D-lysine-coated black-wall, clear-bottom 96-well plates (Becton-Dickinson) and allowed to attach overnight in an incubator at 37° C. Cells were then washed two times with HBSS-HEPES buffer (Hanks Balanced Salt Solution without bicarbonate and phenol red, 20 mM HEPES, pH 7.4) using a Denley Cellwash plate washer (Labsystems). After 45 minutes of dye-loading in the dark, using the calcium-sensitive dye Fluo-4 AM at a final concentration of 2 μM, plates were washed four times with HBSS-HEPES buffer to remove excess dye leaving 100 μl in each well. Plates were re-equilibrated to 37° C. for a few minutes.
(§7) Cells were excited with an Argon laser at 488 nm, and emission was measured through a 510–570 nm bandwidth emission filter (FLIPR™, Molecular Devices, Sunnyvale, Calif.). Drug solution was added in a 50 μl volume to each well to give the desired final concentration. The peak increase in fluorescence intensity was recorded for each well. On each plate, four wells each served as negative (HBSS-HEPES buffer) and positive controls (standard agonists: BW245C (hDP); PGE2 (hEP1; hEP2/Gqs5; hEP3A/Gqi5; hEP4/Gqs5); PGF2α (hFP); carbacyclin (hIP); U46619 (hTP), depending on receptor). The peak fluorescence change in each drug-containing well was then expressed relative to the controls.
(§8) Compounds were tested in a high-throughput (HTS) or concentration-response (CoRe) format. In the HTS format, forty-four compounds per plate were examined in duplicates at a concentration of 10^−5 M. To generate concentration-response curves, four compounds per plate were tested in duplicates in a concentration range between 10^−5 and 10^−11 M. The duplicate values were averaged. In either, HTS or CoRe format each compound was tested on at least 3 separate plates using cells from different passages to give an n≧3.

hEP4/Gqs5 = target: T4, hEP4/Gqs5 (Homo sapiens, UniProt P35408); assay: FLIPR calcium signal, hEP4/Gqs5; assay type: cell-based; details: HEK-293 (EBNA) cells, read-out: FUNCTIONAL EC50 HEP4
T4 construct: expressed in transfected cells; host or cells: HEK-293 (EBNA)
Experimental: as §5, §6, §7, §8

hTP = target: T5, hTP (Homo sapiens, UniProt P21731); assay: FLIPR calcium signal, hTP; assay type: cell-based; details: HEK-293 (EBNA) cells, read-out: FUNCTIONAL EC50 HTP
T5 construct: expressed in transfected cells; host or cells: HEK-293 (EBNA)
T5 sequence (P21731 1-343): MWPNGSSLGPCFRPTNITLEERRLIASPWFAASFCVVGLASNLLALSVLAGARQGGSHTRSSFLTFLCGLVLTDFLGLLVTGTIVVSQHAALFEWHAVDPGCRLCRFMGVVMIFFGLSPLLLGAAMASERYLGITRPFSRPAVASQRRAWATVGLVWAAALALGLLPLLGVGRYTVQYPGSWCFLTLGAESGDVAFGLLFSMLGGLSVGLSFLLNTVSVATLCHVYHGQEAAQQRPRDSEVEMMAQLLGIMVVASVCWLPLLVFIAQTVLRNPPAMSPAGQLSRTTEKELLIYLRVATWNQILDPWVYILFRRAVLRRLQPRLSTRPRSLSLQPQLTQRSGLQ
Experimental: as §5, §6, §7, §8

HEP3D = target: T6, HEP3D (Homo sapiens, UniProt P43115); assay: Radioligand binding, EP3 receptor; details: [3H]PGE2 5 nM
T6 sequence (P43115 1-374 isoform P43115-4): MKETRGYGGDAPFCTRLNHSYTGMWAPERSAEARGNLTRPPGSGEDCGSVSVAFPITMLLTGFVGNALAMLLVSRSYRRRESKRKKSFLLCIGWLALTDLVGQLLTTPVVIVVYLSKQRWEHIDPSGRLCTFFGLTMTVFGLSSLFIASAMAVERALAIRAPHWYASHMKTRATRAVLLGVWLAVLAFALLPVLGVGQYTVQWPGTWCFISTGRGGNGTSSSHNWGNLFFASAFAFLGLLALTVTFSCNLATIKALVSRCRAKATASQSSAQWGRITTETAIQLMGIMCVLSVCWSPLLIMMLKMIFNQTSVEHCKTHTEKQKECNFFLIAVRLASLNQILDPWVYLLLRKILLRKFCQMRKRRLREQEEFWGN
Experimental: as §2, §3, §4

T2 sequence (P43116 whole entry): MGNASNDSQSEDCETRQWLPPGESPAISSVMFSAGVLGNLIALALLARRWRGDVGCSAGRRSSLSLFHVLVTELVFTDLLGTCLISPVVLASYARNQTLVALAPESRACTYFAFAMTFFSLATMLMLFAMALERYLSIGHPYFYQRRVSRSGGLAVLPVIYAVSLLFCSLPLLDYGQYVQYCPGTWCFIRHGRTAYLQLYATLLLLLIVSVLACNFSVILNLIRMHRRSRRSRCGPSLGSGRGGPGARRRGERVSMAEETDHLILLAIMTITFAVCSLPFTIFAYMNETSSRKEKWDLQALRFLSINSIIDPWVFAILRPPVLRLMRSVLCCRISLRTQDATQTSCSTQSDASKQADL
T4 sequence (P35408 whole entry): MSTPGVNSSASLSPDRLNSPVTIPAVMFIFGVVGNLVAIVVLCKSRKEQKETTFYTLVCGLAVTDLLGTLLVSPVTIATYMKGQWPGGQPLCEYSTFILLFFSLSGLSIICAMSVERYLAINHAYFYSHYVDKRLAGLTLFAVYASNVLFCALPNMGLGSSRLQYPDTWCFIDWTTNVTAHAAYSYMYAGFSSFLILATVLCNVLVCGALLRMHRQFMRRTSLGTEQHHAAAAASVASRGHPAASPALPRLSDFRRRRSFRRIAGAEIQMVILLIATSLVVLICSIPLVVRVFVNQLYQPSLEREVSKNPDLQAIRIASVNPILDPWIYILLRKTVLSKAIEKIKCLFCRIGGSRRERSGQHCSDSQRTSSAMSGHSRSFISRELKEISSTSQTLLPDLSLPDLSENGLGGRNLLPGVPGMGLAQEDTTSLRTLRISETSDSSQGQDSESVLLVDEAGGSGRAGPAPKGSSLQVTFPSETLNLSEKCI
T1 sequence (P35408 whole entry): as above

Compound	IC50 (HEP4)	IC50 (HEP2)	EC50 (hEP3A/Gqi5)	EC50 (hEP4/Gqs5)	EC50 (hTP)	IC50 (HEP3D)	Max hyperemia (Beagle dogs [1]; Conc. 0.03%)	Max. ΔIOP (Beagle dogs [2]; Conc. 0.03%)	Max hyperemia (Beagle dogs [1]; Conc. 0.1%)	Max. ΔIOP (Beagle dogs [2]; Conc. 0.1%)
CC(C)OC(=O)CSCCCS[C@H]1C(=O)C[C@@H](CO)[C@@H]1/C=C/C(O)Cc1ccccc1 (single isomer, unassigned) [Compound 150, {3-[3-Hydroxymethyl-2-(3-hydroxy-4-phenyl-but-1-enyl)-5-oxo-cyclopentylsulfanyl]-propylsulfanyl}-acetic acid isopropyl ester]							0.9	−5.5 mm Hg		
O=C(O)CSCCCS[C@H]1C(=O)CC[C@@H]1/C=C/C(O)CCc1ccc2ccccc2c1 (single isomer, unassigned) [Compound 153]	140 nM	> 10000 nM	> 10000 nM	0.3 nM	> 10000 nM				1.8	−4.4 mm Hg
O=C(O)CSCCCS[C@H]1C(=O)CC[C@@H]1/C=C/C(O)CCc1ccc2ccccc2c1 (single isomer, unassigned) [drawing 36]	140 nM	8100 nM		1 nM						
O=C(O)CSCCCS[C@H]1C(=O)C[C@@H](CO)[C@@H]1/C=C/C(O)CCc1ccc2ccccc2c1 (stereo partly drawn) [Compound 141b, {3-[(1R,2S,3R)-3-Hydroxymethyl-2-((E)-3-hydroxy-5-naphthalen-2-yl-pent-1-enyl)-5-oxo-cyclopentylsulfanyl]-propylsulfanyl}-acetic acid]	400 nM			219 nM					0.7	−1.6 mm Hg
O=C(O)CSCCCS[C@H]1C(=O)CC[C@@H]1/C=C/C(O)CCc1cc2ccccc2s1 (stereo partly drawn) [drawing 25, {3-[(1R,2R)-2-((E)-5-Benzo[b]thiophen-2-yl-3-hydroxy-pent-1-enyl)-5-oxo-cyclopentylsulfanyl]-propylsulfanyl}-acetic acid]	44 nM	> 10000 nM	1950 nM	3.7 nM	> 10000 nM	> 10000 nM				
O=C(O)CSCCCS[C@H]1C(=O)CC[C@@H]1/C=C/C(O)CCc1cc2ccccc2s1 (stereo partly drawn) [drawing 26, {3-[(1R,2R)-2-((E)-5-Benzo[b]thiophen-2-yl-3-hydroxy-pent-1-enyl)-5-oxo-cyclopentylsulfanyl]-propylsulfanyl}-acetic acid]	45 nM	> 10000 nM		2.4 nM		> 10000 nM				

Second part, led by results:

IC50 (HEP4)	IC50 (HEP2)	EC50 (hEP3A/Gqi5)	EC50 (hEP4/Gqs5)	EC50 (hTP)	IC50 (HEP3D)	Compound	Max hyperemia (Beagle dogs [1]; Conc. 0.03%)	Max. ΔIOP (Beagle dogs [2]; Conc. 0.03%)	Max hyperemia (Beagle dogs [1]; Conc. 0.1%)	Max. ΔIOP (Beagle dogs [2]; Conc. 0.1%)
19 nM		> 10000 nM	0.09 nM	> 10000 nM	> 10000 nM	COC(=O)CSCCCS[C@H]1C(=O)CC[C@@H]1/C=C/C(O)Cc1ccccc1 (single isomer, unassigned) [drawing 46]				
11 nM		> 10000 nM		> 10000 nM	> 10000 nM	O=C(O)CSCCCS[C@H]1C(=O)CC[C@@H]1/C=C/C(O)Cc1ccccc1 (single isomer, unassigned) [drawing 48]				
300 nM	> 10000 nM		11 nM			COC(=O)CSCCCS[C@H]1C(=O)CC[C@@H]1/C=C/C(O)CCc1cc2ccccc2s1 (stereo partly drawn) [drawing 28, {3-[(1R,2R)-2-((E)-5-Benzo[b]thiophen-2-yl-3-hydroxy-pent-1-enyl)-5-oxo-cyclopentylsulfanyl]-propylsulfanyl}-acetic acid methyl ester]				
26 nM		> 10000 nM	0.4 nM	> 10000 nM	> 10000 nM	O=C(O)CSCCCS[C@H]1C(=O)CC[C@@H]1/C=C/C(O)Cc1ccc2ccccc2c1 (stereo partly drawn) [{3-[(1R,2R)-2-((E)-3-Hydroxy-4-naphthalen-2-yl-but-1-enyl)-5-oxo-cyclopentylsulfanyl]-propylsulfanyl}-acetic acid]				
